Publication PMC9645410 (Chemical Science, 2022)

Molecular target: GFPxm163 (Aequorea macrodactyla, UniProt Q8WTC8)
Assay: fluorescence quenching titration
Assay type: binding

GFPxm163, sequence (Q8WTC8 1-238): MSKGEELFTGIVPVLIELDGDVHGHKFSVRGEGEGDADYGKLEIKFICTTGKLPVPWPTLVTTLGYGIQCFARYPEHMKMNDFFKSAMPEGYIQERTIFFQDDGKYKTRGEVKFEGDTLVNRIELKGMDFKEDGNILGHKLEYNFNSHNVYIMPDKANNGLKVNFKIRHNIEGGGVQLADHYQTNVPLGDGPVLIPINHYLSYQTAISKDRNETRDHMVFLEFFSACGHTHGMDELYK

**Q.** Which Kd does the source give for `Br` [bromide] here?
**A.** 46.2 ± 5.3 mM

**Q.** `I` [iodide] was tested. Which Kd did it give?
**A.** 6.4 ± 0.1 mM

**Q.** With `O=[N+]([O-])O` [nitrate] as the molecule, how does the Kd read?
**A.** 24.1 ± 0.8 mM
